In ChEMBL document CHEMBL4616723, “Discovery of Antibacterials That Inhibit Bacterial RNA Polymerase Interactions with Sigma Factors” (J Med Chem, 2020) one finds MIC data, which are given here for 31 molecules.

In brackets after ≈: the same amount, converted by molar mass.

Format in all cases: functional
The test system of one assay is Streptococcus pneumoniae. Briefly: Antibacterial activity against Streptococcus pneumoniae ATCC 49619 after 20 hrs by CLSI based-broth microdilution method. The note with it: ATCC 49619, 20 h.
Another assay relates to Pseudomonas aeruginosa. Description: Antibacterial activity against Pseudomonas aeruginosa ATCC 27853 after 20 hrs by CLSI based-broth microdilution method. The note with it: ATCC 27853, 20 h.
The test system of a further assay is Acinetobacter baumannii. Briefly: Antibacterial activity against Acinetobacter baumannii ATCC 19606 after 20 hrs by CLSI based-broth microdilution method. The following applies: ATCC 19606 = CIP 70.34 = JCM 6841, 20 h.
The subject of the next assay is Escherichia coli. Description: Antibacterial activity against Escherichia coli ATCC 25922 after 20 hrs by CLSI based-broth microdilution method. The following applies: ATCC 25922, 20 h. Background: In broth dilution the organism is exposed to a series of concentrations in liquid medium.
The next assay deals with Enterobacter cloacae. Description: Antibacterial activity against Enterobacter cloacae ATCC 13047 after 20 hrs by CLSI based-broth microdilution method. The note with it: subsp. cloacae ATCC 13047, 20 h.
Another assay concerns Klebsiella pneumoniae. Description: Antibacterial activity against Klebsiella pneumoniae ATCC 700603 after 20 hrs by CLSI based-broth microdilution method. The note with it: ATCC 700603, 20 h.

The MIC is the least concentration at which growth counts as inhibited. Low readings indicate a more susceptible organism, high ones a less susceptible organism.

Consider `O=C(O)c1ccc(F)c(NCc2ccc(Sc3ccc(Cl)c(Cl)c3)c([N+](=O)[O-])c2)c1`, for which the MIC against Streptococcus pneumoniae, in the assay with Pseudomonas aeruginosa, against Acinetobacter baumannii, with Escherichia coli, in the assay on Enterobacter cloacae and against Klebsiella pneumoniae was over 256 µg/mL each time.

Consider `Nc1ccccc1Nc1ccc(C(=O)c2ccccc2C(=O)O)cc1[N+](=O)[O-]`, for which the minimal inhibitory concentration (MIC) in the assay on Streptococcus pneumoniae, in the assay on Pseudomonas aeruginosa, against Acinetobacter baumannii, with Escherichia coli, in the assay with Enterobacter cloacae and against Klebsiella pneumoniae was over 256 µg/mL each time.

Regarding `O=C(O)c1ccc(N2CCOCC2)c(NCc2ccc(Sc3ccc(Cl)c(Cl)c3)c([N+](=O)[O-])c2)c1`, the minimal inhibitory concentration (MIC) with Streptococcus pneumoniae was 16 µg/mL (≈ 29.9 µM); with Pseudomonas aeruginosa it was over 256 µg/mL; in the assay with Acinetobacter baumannii, over 256 µg/mL; against Escherichia coli it was over 256 µg/mL; in the assay on Enterobacter cloacae it was over 256 µg/mL; against Klebsiella pneumoniae it was over 256 µg/mL.

As for `O=C(O)c1ccccc1C(=O)c1ccc(Sc2ccc(Cl)cc2Cl)c([N+](=O)[O-])c1`, the MIC against Streptococcus pneumoniae is 32 µg/mL (≈ 71.4 µM); with Pseudomonas aeruginosa it was over 256 µg/mL; against Acinetobacter baumannii it was over 256 µg/mL; with Escherichia coli, over 256 µg/mL; in the assay with Enterobacter cloacae, over 256 µg/mL; against Klebsiella pneumoniae it was over 256 µg/mL.

As to `O=C(O)c1ccccc1C(=O)c1ccc(Nc2cccc(CO)c2)c([N+](=O)[O-])c1`, the MIC against Streptococcus pneumoniae, in the assay on Pseudomonas aeruginosa, against Acinetobacter baumannii, against Escherichia coli, against Enterobacter cloacae and against Klebsiella pneumoniae was over 256 µg/mL each time.

For `Cc1cccc([N+](=O)[O-])c1Sc1ccc(C(=O)c2ccccc2C(=O)O)cc1[N+](=O)[O-]`, the minimal inhibitory concentration (MIC) in the assay with Streptococcus pneumoniae is 128 µg/mL (≈ 292 µM); against Pseudomonas aeruginosa it was over 256 µg/mL; in the assay on Acinetobacter baumannii, over 256 µg/mL; with Escherichia coli, over 256 µg/mL; in the assay with Enterobacter cloacae, over 256 µg/mL; with Klebsiella pneumoniae it was over 256 µg/mL.

As for `NC(=O)c1ccccc1NCc1ccc(Sc2ccc(Cl)c(Cl)c2)c([N+](=O)[O-])c1`, the MIC against Streptococcus pneumoniae, against Pseudomonas aeruginosa, with Acinetobacter baumannii, against Escherichia coli, in the assay with Enterobacter cloacae and in the assay with Klebsiella pneumoniae was over 256 µg/mL throughout.

Turning to `NC(=O)c1cccc(Nc2ccc(C(=O)c3ccccc3C(=O)O)cc2[N+](=O)[O-])c1`, the minimum inhibitory concentration (MIC) in the assay with Streptococcus pneumoniae, in the assay on Pseudomonas aeruginosa, against Acinetobacter baumannii, with Escherichia coli, against Enterobacter cloacae and in the assay with Klebsiella pneumoniae was over 256 µg/mL throughout.

On to `Nc1cc(C(=O)c2ccccc2C(=O)O)ccc1Sc1ccc(Cl)c(Cl)c1`, for which the MIC against Streptococcus pneumoniae is 32 µg/mL (≈ 76.5 µM); with Pseudomonas aeruginosa, over 256 µg/mL; in the assay on Acinetobacter baumannii, over 256 µg/mL; in the assay with Escherichia coli it was over 256 µg/mL; in the assay on Enterobacter cloacae, over 256 µg/mL; in the assay on Klebsiella pneumoniae, over 256 µg/mL.

`O=C(O)c1cccc(NC(=O)c2ccc(Sc3ccc(Cl)c(Cl)c3)c([N+](=O)[O-])c2)c1`: the minimal inhibitory concentration (MIC) against Streptococcus pneumoniae is 256 µg/mL (≈ 553 µM); against Pseudomonas aeruginosa, over 256 µg/mL; in the assay with Acinetobacter baumannii it was over 256 µg/mL; against Escherichia coli, over 256 µg/mL; against Enterobacter cloacae, over 256 µg/mL; against Klebsiella pneumoniae it was over 256 µg/mL.

For `O=C(O)c1ccccc1C(=O)c1ccc(NCc2ccccc2F)c([N+](=O)[O-])c1`, the MIC was 256 µg/mL (≈ 649 µM) against Streptococcus pneumoniae; over 256 µg/mL in the assay on Pseudomonas aeruginosa; over 256 µg/mL in the assay on Acinetobacter baumannii; over 256 µg/mL in the assay with Escherichia coli; over 256 µg/mL in the assay on Enterobacter cloacae; over 256 µg/mL against Klebsiella pneumoniae.

`CCN(CC)C(=O)c1ccc(Sc2ccc(C(=O)c3ccccc3C(=O)O)cc2[N+](=O)[O-])c([N+](=O)[O-])c1`: the minimum inhibitory concentration (MIC) was 256 µg/mL (≈ 489 µM) in the assay with Streptococcus pneumoniae; over 256 µg/mL against Pseudomonas aeruginosa; over 256 µg/mL against Acinetobacter baumannii; over 256 µg/mL in the assay on Escherichia coli; over 256 µg/mL against Enterobacter cloacae; over 256 µg/mL against Klebsiella pneumoniae.

Regarding `Nc1ccccc1Sc1ccc(C(=O)Nc2cccc(C(=O)O)c2)cc1[N+](=O)[O-]`, the minimal inhibitory concentration (MIC) was 128 µg/mL (≈ 313 µM) against Streptococcus pneumoniae; over 256 µg/mL in the assay with Pseudomonas aeruginosa; over 256 µg/mL against Acinetobacter baumannii; over 256 µg/mL with Escherichia coli; over 256 µg/mL against Enterobacter cloacae; over 256 µg/mL in the assay with Klebsiella pneumoniae.

`O=[N+]([O-])c1cc(CNc2cccc(CO)c2)ccc1Sc1ccc(Cl)c(Cl)c1`: the minimum inhibitory concentration (MIC) against Streptococcus pneumoniae, against Pseudomonas aeruginosa, in the assay on Acinetobacter baumannii, against Escherichia coli, against Enterobacter cloacae and in the assay with Klebsiella pneumoniae was over 256 µg/mL throughout.

As for `Nc1ccccc1Sc1ccc(CNc2cccc(C(=O)O)c2)cc1[N+](=O)[O-]`, the minimum inhibitory concentration (MIC) with Streptococcus pneumoniae is 64 µg/mL (≈ 162 µM); against Pseudomonas aeruginosa it was over 256 µg/mL; with Acinetobacter baumannii, over 256 µg/mL; in the assay with Escherichia coli it was over 256 µg/mL; in the assay with Enterobacter cloacae it was over 256 µg/mL; against Klebsiella pneumoniae it was over 256 µg/mL.

Consider `O=C(Nc1ccccc1C(=O)O)c1ccc(Sc2ccc(Cl)c(Cl)c2)c([N+](=O)[O-])c1`, for which the minimal inhibitory concentration (MIC) in the assay on Streptococcus pneumoniae, in the assay with Pseudomonas aeruginosa, with Acinetobacter baumannii, against Escherichia coli, in the assay with Enterobacter cloacae and with Klebsiella pneumoniae was over 256 µg/mL in each case.

With `NC(=O)c1cccc(NCc2ccc(Sc3ccc(Cl)c(Cl)c3)c([N+](=O)[O-])c2)c1`, the MIC in the assay on Streptococcus pneumoniae, against Pseudomonas aeruginosa, in the assay on Acinetobacter baumannii, in the assay with Escherichia coli, with Enterobacter cloacae and against Klebsiella pneumoniae was over 256 µg/mL each time.

For the molecule `Cc1occc1Sc1ccc(C(=O)c2ccccc2C(=O)O)cc1[N+](=O)[O-]`, the MIC against Streptococcus pneumoniae is 256 µg/mL (≈ 668 µM); with Pseudomonas aeruginosa, over 256 µg/mL; in the assay with Acinetobacter baumannii, over 256 µg/mL; with Escherichia coli, over 256 µg/mL; against Enterobacter cloacae, over 256 µg/mL; in the assay with Klebsiella pneumoniae, over 256 µg/mL.

With `COc1ccccc1Sc1ccc(C(=O)c2ccccc2C(=O)O)cc1[N+](=O)[O-]`, the MIC is 128 µg/mL (≈ 313 µM) with Streptococcus pneumoniae; over 256 µg/mL in the assay on Pseudomonas aeruginosa; over 256 µg/mL in the assay on Acinetobacter baumannii; over 256 µg/mL in the assay on Escherichia coli; over 256 µg/mL in the assay on Enterobacter cloacae; over 256 µg/mL with Klebsiella pneumoniae.

`Nc1ccccc1Sc1ccc(C(=O)Nc2ccccc2C(=O)O)cc1[N+](=O)[O-]`: the MIC was 64 µg/mL (≈ 156 µM) in the assay on Streptococcus pneumoniae; over 256 µg/mL against Pseudomonas aeruginosa; over 256 µg/mL in the assay on Acinetobacter baumannii; over 256 µg/mL with Escherichia coli; over 256 µg/mL with Enterobacter cloacae; over 256 µg/mL in the assay on Klebsiella pneumoniae.

As to `O=C(O)c1cc(NCc2ccc(Sc3ccc(Cl)c(Cl)c3)c([N+](=O)[O-])c2)ccc1Cl`, the MIC was 256 µg/mL (≈ 529 µM) in the assay on Streptococcus pneumoniae; over 256 µg/mL against Pseudomonas aeruginosa; over 256 µg/mL against Acinetobacter baumannii; over 256 µg/mL in the assay with Escherichia coli; over 256 µg/mL in the assay with Enterobacter cloacae; over 256 µg/mL against Klebsiella pneumoniae.

On to `O=C(O)c1ccccc1C(=O)c1ccc(Sc2ccccc2F)c([N+](=O)[O-])c1`, for which the minimum inhibitory concentration (MIC) against Streptococcus pneumoniae is 128 µg/mL (≈ 322 µM); in the assay on Pseudomonas aeruginosa, over 256 µg/mL; against Acinetobacter baumannii, over 256 µg/mL; against Escherichia coli it was over 256 µg/mL; against Enterobacter cloacae, over 256 µg/mL; in the assay with Klebsiella pneumoniae, over 256 µg/mL.

Turning to `Cc1ccc(Sc2ccc(C(=O)c3ccccc3C(=O)O)cc2[N+](=O)[O-])c(C)c1`, the MIC against Streptococcus pneumoniae is 32 µg/mL (≈ 78.5 µM); in the assay on Pseudomonas aeruginosa it was over 256 µg/mL; with Acinetobacter baumannii it was over 256 µg/mL; against Escherichia coli, over 256 µg/mL; in the assay on Enterobacter cloacae, over 256 µg/mL; against Klebsiella pneumoniae it was over 256 µg/mL.

On to `O=C(O)c1ccccc1C(=O)c1ccc(Nc2ccc(Cl)c(Cl)c2)c([N+](=O)[O-])c1`, for which the MIC was 64 µg/mL (≈ 148 µM) against Streptococcus pneumoniae; over 256 µg/mL in the assay with Pseudomonas aeruginosa; over 256 µg/mL in the assay on Acinetobacter baumannii; over 256 µg/mL in the assay with Escherichia coli; over 256 µg/mL against Enterobacter cloacae; over 256 µg/mL against Klebsiella pneumoniae.

On to `CC(C)Nc1cccc(Sc2ccc(C(=O)c3ccccc3C(=O)O)cc2[N+](=O)[O-])c1`, for which the minimal inhibitory concentration (MIC) against Streptococcus pneumoniae is 32 µg/mL (≈ 73.3 µM); against Pseudomonas aeruginosa it was over 256 µg/mL; in the assay with Acinetobacter baumannii, over 256 µg/mL; in the assay with Escherichia coli, over 256 µg/mL; with Enterobacter cloacae, over 256 µg/mL; in the assay on Klebsiella pneumoniae it was over 256 µg/mL.

In the case of `O=C(O)c1ccccc1C(=O)c1ccc(N2CCCCC2)c([N+](=O)[O-])c1`, the minimal inhibitory concentration (MIC) against Streptococcus pneumoniae is 256 µg/mL (≈ 722 µM); in the assay with Pseudomonas aeruginosa it was over 256 µg/mL; with Acinetobacter baumannii, over 256 µg/mL; in the assay on Escherichia coli it was over 256 µg/mL; with Enterobacter cloacae, over 256 µg/mL; against Klebsiella pneumoniae, over 256 µg/mL.

On to `O=C(O)c1ccccc1C(=O)c1ccc(Nc2nccs2)c([N+](=O)[O-])c1`, for which the minimal inhibitory concentration (MIC) with Streptococcus pneumoniae, in the assay on Pseudomonas aeruginosa, in the assay with Acinetobacter baumannii, in the assay on Escherichia coli, against Enterobacter cloacae and in the assay on Klebsiella pneumoniae was over 256 µg/mL in each case.

With `CC(C)(C)c1cccc(Nc2ccc(C(=O)c3ccccc3C(=O)O)cc2[N+](=O)[O-])c1`, the MIC was 256 µg/mL (≈ 612 µM) in the assay with Streptococcus pneumoniae; over 256 µg/mL in the assay with Pseudomonas aeruginosa; over 256 µg/mL against Acinetobacter baumannii; over 256 µg/mL against Escherichia coli; over 256 µg/mL against Enterobacter cloacae; over 256 µg/mL in the assay with Klebsiella pneumoniae.

`O=C(O)c1ccccc1C(=O)c1ccc(NCc2ccccc2)c([N+](=O)[O-])c1`: the MIC was 256 µg/mL (≈ 680 µM) against Streptococcus pneumoniae; over 256 µg/mL against Pseudomonas aeruginosa; over 256 µg/mL against Acinetobacter baumannii; over 256 µg/mL in the assay with Escherichia coli; over 256 µg/mL with Enterobacter cloacae; over 256 µg/mL with Klebsiella pneumoniae.

On to `Cc1ccc(C(=O)O)cc1NCc1ccc(Sc2ccc(Cl)c(Cl)c2)c([N+](=O)[O-])c1`, for which the MIC with Streptococcus pneumoniae was 16 µg/mL (≈ 34.5 µM); in the assay with Pseudomonas aeruginosa it was over 256 µg/mL; with Acinetobacter baumannii, over 256 µg/mL; with Escherichia coli it was over 256 µg/mL; in the assay on Enterobacter cloacae, over 256 µg/mL; with Klebsiella pneumoniae, over 256 µg/mL.

For the molecule `Cc1cccc(Nc2ccc(C(=O)c3ccccc3C(=O)O)cc2[N+](=O)[O-])c1`, the MIC with Streptococcus pneumoniae is 128 µg/mL (≈ 340 µM); in the assay with Pseudomonas aeruginosa, over 256 µg/mL; in the assay with Acinetobacter baumannii it was over 256 µg/mL; in the assay with Escherichia coli it was over 256 µg/mL; in the assay on Enterobacter cloacae, over 256 µg/mL; in the assay on Klebsiella pneumoniae, over 256 µg/mL.
